Our source for the IC50 values is US10208016B2, “1-sulfonyl piperidine derivatives as modulators of prokineticin receptors” (TAKEDA PHARMACEUTICAL COMPANY LIMITED, priority 2013, dated 2019).

Chain of human PKR1 receptors (Q8TCW9 whole entry): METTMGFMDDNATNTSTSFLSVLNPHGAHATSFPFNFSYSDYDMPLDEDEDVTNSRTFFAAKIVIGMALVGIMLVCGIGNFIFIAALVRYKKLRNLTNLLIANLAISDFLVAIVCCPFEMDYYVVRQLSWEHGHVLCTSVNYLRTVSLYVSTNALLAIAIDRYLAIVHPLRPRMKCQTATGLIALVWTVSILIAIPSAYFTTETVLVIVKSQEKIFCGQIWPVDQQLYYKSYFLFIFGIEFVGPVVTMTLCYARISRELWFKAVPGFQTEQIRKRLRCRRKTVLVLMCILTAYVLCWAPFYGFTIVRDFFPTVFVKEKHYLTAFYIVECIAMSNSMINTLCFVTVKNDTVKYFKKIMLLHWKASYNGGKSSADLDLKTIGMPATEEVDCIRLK

The assay addresses human PKR1 receptors (Homo sapiens (Human), UniProt Q8TCW9). The assay is described as follows: PKR1 antagonist calcium mobilisation assay (FLIPR), block of PK1-mediated intracellular calcium release. Format: cell-based. To be noted: RBL2H3 cells expressing human PKR1; stimulation with PK1 at EC80; calcium fluorescence. As for the experimental part: Prokineticin receptor 1 (PKR1) antagonists may be functionally assessed by measurement of change in intracellular calcium levels induced by Gq mediated increase in inositol triphosphate (IP3) levels. The ability of a compound to block the intracellular release of calcium mediated by PK1 in RBL2H3 cells expressing human PKR1 receptors is determined as a measure of the compound's antagonist activity in vitro.
Approximately 10,000 cells per assay well are seeded in normal culture medium in a 384 well plate (Corning). Twenty-four hours after seeding, the cells are loaded with a calcium sensitive fluorescent dye by replacing the culture medium with assay buffer (1× Hanks buffered saline, 25 mM HEPES, 0.1% w/v fatty acid free BSA (bovine serum albumin), pH 7.4) containing 1 mM probenecid and 1× Calcium 5 Reagent (Molecular Devices). Cells are incubated at 37° C. for 1 hour to allow for dye uptake.
To test for antagonist activity, test compounds at a final concentration range between 0.32 nM-10 μM (diluted in assay buffer) are added to the assay wells and allowed to incubate for 10 minutes prior to stimulation with PK1. After incubation with test compounds the assay plate is placed in a FLIPR Tetra (Molecular Devices) and PK1 (diluted in assay buffer) is added at the determined EC80 concentration (final). Ligand-dependent changes in intracellular calcium levels are determined by measuring changes in fluorescence of the dye at […] following excitation at 485 nm.
`Cc1n[nH]c(C)c1S(=O)(=O)N1CCC(=C(C#N)c2ccc(Cl)cc2F)CC1` [Example 5, 2-(4-Chloro-2-fluorophenyl)-2-(1-((3,5-dimethyl-1H-pyrazol-4-yl)sulfonyl)piperidin-4-ylidene)acetonitrile]: the IC50 was found to be 180 nM.

As for `Cc1n[nH]c(C)c1S(=O)(=O)N1CCC(=C(C#N)c2ccc(OC(F)(F)F)cc2)CC1` [Example 9], the IC50 was determined as 150 nM.

Turning to `Cc1n[nH]c(C)c1S(=O)(=O)N1CCC(=C(F)c2ccc(Cl)cc2F)CC1` [Example 21, 4-((4-Chloro-2-fluorophenyl)fluoromethylene)-1-((3,5-dimethyl-1H-pyrazol-4-yl)sulfonyl)piperidine], the half-maximal inhibitory concentration (IC50) is 400 nM.

On to `CCc1n[nH]c(CC)c1S(=O)(=O)N1CCC(=C(C#N)c2ccc(Cl)cc2)CC1` [Example 6, 2-(4-Chlorophenyl)-2-(1-((3,5-diethyl-1H-pyrazol-4-yl)sulfonyl)piperidin-4-ylidene)acetonitrile], for which the half-inhibitory concentration (IC50) amounted to 50 nM.

Turning to `Cc1n[nH]c(C)c1S(=O)(=O)N1CCC(=C(F)c2ccc(Cl)cc2)CC1` [Example 16, 4-((4-Chlorophenyl)fluoromethylene)-1-((3,5-dimethyl-1H-pyrazol-4-yl)sulfonyl)piperidine], the IC50 is 160 nM.

In the case of `Cc1n[nH]c(C)c1S(=O)(=O)N1CCC(=C(F)c2ccc(Cl)c(F)c2)CC1` [Example 20, 4-((4-Chloro-3-fluorophenyl)fluoromethylene)-1-((3,5-dimethyl-1H-pyrazol-4-yl)sulfonyl)piperidine], the IC50 is 190 nM.

On to `Cc1nn(C)c(C)c1S(=O)(=O)N1CCC(=C(C#N)c2ccc(Cl)cc2)CC1` [Example 15, 2-(4-Chlorophenyl)-2-(1-((1,3,5-trimethyl-1H-pyrazol-4-yl)sulfonyl)piperidin-4-ylidene)acetonitrile], for which the half-inhibitory concentration (IC50) turned out to be 40 nM.

For the compound `Cc1nn(C)c(C)c1S(=O)(=O)N1CCC(=C(C#N)c2c(F)cccc2F)CC1` [Example 8, 2-(2,6-Difluorophenyl)-2-(1-((1,3,5-trimethyl-1H-pyrazol-4-yl)sulfonyl)piperidin-4-ylidene)acetonitrile], the IC50 was 5430 nM.

On to `COC(=O)C(=C1CCN(S(=O)(=O)c2c(C)n[nH]c2C)CC1)c1ccc(Cl)cc1` [Example 2, Methyl 2-(4-Chlorophenyl)-2-(1-((3,5-dimethyl-1H-pyrazol-4-yl)sulfonyl)piperidin-4-ylidene)acetate], for which the half-inhibitory concentration (IC50) turned out to be 3100 nM.

In the case of `Cc1n[nH]c(C)c1S(=O)(=O)N1CCC(=C(F)c2cnc3ccccc3c2)CC1` [Example 23], the IC50 amounted to 60 nM.

Regarding `Cc1n[nH]c(C)c1S(=O)(=O)N1CCC(=Cc2ccc(Cl)cc2)CC1` [Example 14, 4-(4-Chlorobenzylidene)-1-((3,5-dimethyl-1H-pyrazol-4-yl)sulfonyl)piperidine], the 50% inhibitory concentration (IC50) amounted to 760 nM.

Consider `Cc1n[nH]c(C)c1S(=O)(=O)N1CCC(=C(F)c2ccc(Cl)cc2Cl)CC1` [Example 18, 4-((2,4-Dichlorophenyl)fluoromethylene)-1-((3,5-dimethyl-1H-pyrazol-4-yl)sulfonyl)piperidine], for which the IC50 is 260 nM.

`Cc1c(S(=O)(=O)N2CCC(=C(C#N)c3ccc(Cl)cc3)CC2)c(C(F)(F)F)nn1C` [Example 7, 2-(4-Chlorophenyl)-2-(1-((1,5-dimethyl-3-(trifluoromethyl)-1H-pyrazol-4-yl)sulfonyl)piperidin-4-ylidene)acetonitrile]: the IC50 is 210 nM.

Take `Cc1n[nH]c(C)c1S(=O)(=O)N1CCC(=C(F)c2ccc(Cl)c(Cl)c2)CC1` [Example 19, 4-((3,4-Dichlorophenyl)fluoromethylene)-1-((3,5-dimethyl-1H-pyrazol-4-yl)sulfonyl)piperidine]: the IC50 was 520 nM.

In the case of `Cc1n[nH]c(C)c1S(=O)(=O)N1CCC(=Cc2ccc(Cl)cc2F)CC1` [Example 11, 4-(4-Chloro-2-fluorobenzylidene)-1-((3,5-dimethyl-1H-pyrazol-4-yl)sulfonyl)piperidine], the IC50 was 600 nM.

Turning to `Cc1n[nH]c(C)c1S(=O)(=O)N1CC/C(=C(\C#N)c2ccc(Cl)cc2)C(C)C1` (stereo not shown) [Example 10, 2-(4-Chlorophenyl)-2-(1-((3,5-dimethyl-1H-pyrazol-4-yl)sulfonyl)-3-methylpiperidin-4-ylidene) acetonitrile], the IC50 amounted to 470 nM.

As for `CC(=C1CCN(S(=O)(=O)c2c(C)n[nH]c2C)CC1)c1ccc(Cl)cc1` [Example 13], the IC50 was 760 nM.

As for `Cc1n[nH]c(C)c1S(=O)(=O)N1CCC(=C(C#N)c2ccc(Cl)cc2)CC1` [Example 3, 2-(4-Chlorophenyl)-2-(1-((3,5-dimethyl-1H-pyrazol-4-yl)sulfonyl)piperidin-4-ylidene)acetonitrile], the IC50 stood at 40 nM.

With `Cc1n[nH]c(C)c1S(=O)(=O)N1CCC(=C(C#N)c2c(F)cccc2F)CC1` [Example 4, 2-(2,6-Difluorophenyl)-2-(1-((3,5-dimethyl-1H-pyrazol-4-yl)sulfonyl)piperidin-4-ylidene)acetonitrile], the IC50 is 3680 nM.

Consider `Cc1[nH]nc(C2CC2)c1S(=O)(=O)N1CCC(Cc2ccc(Cl)c(F)c2)CC1` [Example 1, 4-(4-Chloro-3-fluorobenzyl)-1-((3-cyclopropyl-5-methyl-1H-pyrazol-4-yl)sulfonyl)piperidine], for which the IC50 was found to be 1370 nM.

With `Cc1nn(C)c(C)c1S(=O)(=O)N1CCC(=Cc2ccc(Cl)cc2F)CC1` [Example 12, 4-(4-Chloro-2-fluorobenzylidene)-1-((1,3,5-trimethyl-1H-pyrazol-4-yl)sulfonyl)piperidine], the IC50 was determined as 550 nM.

For `Cc1n[nH]c(C)c1S(=O)(=O)N1CCC(=C(F)c2ccc(F)c(Cl)c2)CC1` [Example 17, 4-((3-Chloro-4-fluorophenyl)fluoromethylene)-1-((3,5-dimethyl-1H-pyrazol-4-yl)sulfonyl) piperidine], the IC50 was 1880 nM.
